System: male rats exhibiting a spontaneous genetically transmissible hypertension
Assay: Systolic arterial pressure and rate of heartbeat in spontaneously hypertensive rats after intraperitoneal administration
Format: in vivo
Settings: Rattus norvegicus, ip, 0.5 h, 40 mg/kg given intraperitoneally, T + 30 mins, read-out: percentage variation and mean deviation of the systolic arterial pressure, T + 30 mins
Protocol: The arterial pressure is measured by a "Narco Bio System" sphygmomanometer. A sleeve is placed over the base of the tail and a detector records the pulse downstream from the sleeve. The sleeve is then inflated until the pulse is stopped, thus indicating the systolic pressure. The rate of heartbeat is also recorded. The products to be studied are converted to a suspension by means of "Tween 80" and administered intraperitoneally in a volume of 1 cm^3 per 100 grams of body weight. The measurements are repeated at regular intervals.

Compound	change in vivo at 40 mg/kg [%]
C#CCOc1ccccc1C=NNC(=N)N [Example 1, N-[o-(Prop-2-Y-noxy)-Benzylidene]-N'-Amidino-Hydrazine]	-52 ± 3.4
Cn1c(=O)n(C)c2cc(C=NNC3=NCCN3)ccc21 [Example 12, N-(1,3-Dimethyl-2-Oxo-5-Benzimidazolylidene)-N'-Imidazolino-Hydrazine]	-39 ± 7.4

Source: US4109008A, “Hydrazine derivatives useful as anti-hypertensives” (Hexachimie, priority 1976, dated 1978)
